Data taken from patent publication US9980894B2, “Cosmetic compositions comprising hyaluronan biosynthesis promoting agents” (Symrise AG, priority 2012, dated 2018).
Entries after “also recorded” stand apart in the source; their conditions may differ. Where two headings read alike, the source gives them in different places.

Assays:
[1] = test system: Normal Human Epidermal Keratinocytes (NHEK); experiment: Cellular in vitro hyaluronan assay on normal human epidermal keratinocytes (hyaluronic acid ELISA); assay type: cell-based; settings: for Mean hyaluronan stimulation, fold less than that of the positive control retinol: compounds at 0.25 μM versus retinol at 0.1 μM; for Effect on hyaluronan production of epidermal keratinocytes (in words): in vitro; for Mean hyaluron stimulation vs. control: 16 h
Method: NHEK are seeded into a 24 well plate at a concentration of 2.5×10^4 cells/well. Cells are incubated at 37° C. and 5% CO2 in keratinocyte medium until they are 70-80% confluent. Then the medium is withdrawn, cells are washed with PBS and the test compounds dissolved in keratinocyte medium are added. After incubation for 16 h in the presence of the test compounds, the culture medium is collected and hyaluronan is determined by a hyaluronic acid ELISA detection kit (Corgenix) which is performed according to the supplier instructions. The stimulation of the hyaluronan biosynthesis in the presence of the test compounds is calculated according to the following equation: Hyaluronan stimulation [%]=([…]×100)−100 with • HAcontrol=hyaluronan content in ng/ml of the medium from cells treated with control • HAtest compound=hyaluronan content in ng/ml of the medium from cells treated with test compound

[2] = test system: Normal Human Dermal Fibroblasts (NHDF); experiment: Cellular in vitro hyaluronan assay on normal human dermal fibroblasts (hyaluronic acid ELISA); assay type: cell-based; settings: for Mean hyaluronan stimulation compared with positive control TGF-b1: cassione 0.25 μM, [6]-paradol 0.025 μM versus TGF-b1 1 ng/ml; for Effect on hyaluronan production of dermal fibroblasts (in words): in vitro; for Mean hyaluron stimulation vs. control: 16 h
Method: NHDF are seeded into a 24 well plate at a concentration of 1.5×10^4 cells/well. Cells are incubated at 37° C. and 5% CO2 in fibroblast medium containing 10% fetal bovine serum (FBS) until they are 70-80% confluent. Then the medium is withdrawn, cells are washed with PBS and the test compounds dissolved in fibroblast medium without FBS are added. After incubation for 16 h in the presence of the test compounds, the culture medium is collected and hyaluronan is determined by a hyaluronic acid ELISA detection kit (Corgenix) which is performed according to the supplier instructions. The stimulation of the hyaluronan biosynthesis in the presence of the test compounds is calculated according to the following equation: Hyaluronan stimulation [%]=([…]×100)−100 with • HAcontrol=hyaluronan content in ng/ml of the medium from cells treated with control • HAtest compound=hyaluronan content in ng/ml of the medium from cells treated with test compound

B16 melanoma cell line = settings: cited from earlier work
ex vivo human skin = experiment: Hyaluronan assay on ex vivo human skin (Alcain blue staining, image analysis); assay type: cell-based
Description: Human skin obtained from plastic surgery is cut into pieces of approximately 7×3 mm (diameter×thickness). 6 skin samples are used for each treatment. The skin samples are placed on a cotton pad soaked with culture medium (modified Williams'E medium). Control and hydrodispersion gels (as described in more detail below) without (=placebo) and with the test compound, respectively, are applied topically on day 0 and the application is renewed on day 1. On day 2, skin samples are fixed, histological sections are prepared and subsequent histochemically stained by Alcain blue. After that, pictures are taken from each section and dermal and epidermal hyaluronan is quantified by image analysis of a selected region of interest. To do so, the histochemical staining is divided in three different color channels with an algorithm specific for Alcain blue staining and the distribution and intensity of the blue colour channel which is specific for hyaluronan is analysed. Hyaluronan stimulation [%]=([…]×100)−100 with • HAcontrol=hyaluronan score of the skin sample treated with control • HAtest compound=hyaluron score of the skin sample treated with test compound
The hydrodispersion gels used had the composition as set out in Table 4: […]

[3] = listed as compound of formula IV
[4] = 0.0001% [6]-paradol containing gel versus placebo gel
[5] = 0.0001 % in hydrodispersion gel, topical on day 0 and day 1, analysed day 2

Compound: CC(=O)CCc1ccc2c(c1)OCO2 [Cassione, 4-(3,4-methylendioxyphenyl)-2-butanone]
- Mean hyaluronan stimulation, fold less than that of the positive control retinol [1]: 1.9 fold
- Effect on hyaluronan production of epidermal keratinocytes (in words) [1]: enhance the hyaluronan production; also recorded: potently enhance
- Mean hyaluron stimulation vs. control ([1]; test concentration 0.25 μM): 37.0 ± 8.0%
- Mean hyaluronan stimulation compared with positive control TGF-b1 [2]: comparable
- Effect on hyaluronan production of dermal fibroblasts (in words) [2]: enhance the hyaluronan production; also recorded: potently enhance
- Mean hyaluron stimulation vs. control ([2]; test concentration 0.25 μM): 41.0 ± 6.0%
- inhibition (skin lightening, in vitro efficacy) (B16 melanoma cell line; 26 μM (5 μg/ml)): 15%
- inhibition (skin lightening, in vitro efficacy) (B16 melanoma cell line; 520 μM (100 μg/ml)): 87%

Compound: COc1cc(CCC(=O)c2ccc(O)cc2)ccc1O [Compound of formula IV, 3-(4-Hydroxy-3-methoxyphenyl)-1-(4-hydroxyphenyl)-1-propanone]
- Mean hyaluronan stimulation, fold less than that of the positive control retinol [1]: 1.4 fold
- Effect on hyaluronan production of epidermal keratinocytes (in words) [1, 3]: enhance the hyaluronan production
- Effect on hyaluronan production of epidermal keratinocytes (in words) ([1]; listed as formula IV): powerfully upregulates HA synthesis
- Mean hyaluron stimulation vs. control ([1]; test concentration 0.25 μM): 50.5 ± 26.5%
- Effect on hyaluronan production of dermal fibroblasts (in words) [2, 3]: no stimulatory activity
- Effect on hyaluronan production of dermal fibroblasts (in words) ([2]; listed as formula IV): no direct stimulating effect on dermal fibroblasts
- Mean hyaluron stimulation vs. control ([2]; test concentration 0.25 μM): −5.5 ± 2.5%

Compound: CC1=C(/C=C/C(C)=C/C=C/C(C)=C/C(=O)O)C(C)(C)CCC1 [Retinoic acid, reference compound]
- Mean hyaluron stimulation vs. control ([1]; test concentration 0.1 μM): 116.1 ± 37.3%
- Mean hyaluron stimulation vs. control ([2]; test concentration 0.1 μM): −13.0 ± 18.0%

Compound: CC1=C(/C=C/C(C)=C/C=C/C(C)=C/CO)C(C)(C)CCC1 [Retinol, reference compound]
- Mean hyaluron stimulation vs. control ([1]; test concentration 0.1 μM): 70.8 ± 33.3%
- Effect on hyaluronan production of dermal fibroblasts (in words) [2]: no stimulatory activity
- Mean hyaluron stimulation vs. control ([2]; test concentration 0.1 μM): 2.0%

Compound: COc1cc(CCC(C)=O)ccc1O [Zingerone, 4-(4-hydroxy-3-methoxyphenyl)-2-butanone]
- Mean hyaluronan stimulation, fold less than that of the positive control retinol [1]: 1.6 fold
- Effect on hyaluronan production of epidermal keratinocytes (in words) [1]: enhance the hyaluronan production; also recorded: more pronounced effect on epidermal keratinocytes
- Mean hyaluron stimulation vs. control ([1]; test concentration 0.25 μM): 45.0 ± 24.7%
- Effect on hyaluronan production of dermal fibroblasts (in words) [2]: enhance the hyaluronan production; also recorded: increases HA biosynthesis
- Mean hyaluron stimulation vs. control ([2]; test concentration 0.25 μM): 15.0 ± 5.3%

Compound: CCCCCCCC(=O)CCc1ccc(O)c(OC)c1 [[6]-Paradol, Heptyl 4-hydroxy-3-methoxyphenethyl ketone]
- Effect on hyaluronan production of epidermal keratinocytes (in words) [1]: no stimulatory activity; also recorded: without any direct stimulating effect on epidermal keratinocytes
- Mean hyaluron stimulation vs. control ([1]; test concentration 0.025 μM): −3.0 ± 3.0%
- Mean hyaluronan stimulation compared with positive control TGF-b1 [2]: comparable
- Effect on hyaluronan production of dermal fibroblasts (in words) [2]: enhance the hyaluronan production; also recorded: potently stimulates
- Mean hyaluron stimulation vs. control ([2]; test concentration 0.025 μM): 38.0 ± 9.0%
- Mean HA stimulation versus placebo, dermal HA (ex vivo human skin; [4]): 250%
- Mean HA stimulation versus placebo, epidermal HA (ex vivo human skin; [4]): 124%
- Mean hyaluronan stimulation vs. control [%] Dermal (ex vivo human skin; [5]): 124%
- Mean hyaluronan stimulation vs. control [%] Epidermal (ex vivo human skin; [5]): 51%
- Effect on dermal and epidermal hyaluronan level of ex vivo human skin (in words) (ex vivo human skin; 0.0001%, 2 days of topical treatment): significantly stimulates

Compound: TGF-b1: Transforming growth factor (TGF)-beta1, positive control known to increase HA synthesis in dermal fibroblasts
- Effect on hyaluronan production of epidermal keratinocytes (in words) [1]: no stimulatory activity
- Mean hyaluron stimulation vs. control ([1]; test concentration 1 ng/ml): −31.0%
- Mean hyaluron stimulation vs. control ([2]; test concentration 1 ng/ml): 39.7 ± 13.9%
